Experimental data published in ChEMBL document CHEMBL1153590 (Bioorg Med Chem Lett, 2009).
The source made the active and inactive calls. No cut-off for these calls is given here.

Key:
A2780 [1] = test: Cytotoxicity against human A2780 cells after 4 days by sulforhodamine B assay; type: functional, cell-based; settings: A2780, 96 h
[2] = Effect on tubulin polymerization at 50 uM by cold-induced disassembly assay
[3] = Ratio of paclitaxel Kd to compound Kd for displacement of fluorescent N-AB-PT from tubulin
PC-3 [4] = test: Cytotoxicity against human PC3 cells after 4 days by sulforhodamine B assay; type: functional, cell-based; settings: PC-3, 96 h
[5] = Inhibition of tubulin assembly
[6] = Ratio of compound ED50 to paclitaxel ED50 for inhibition of tubulin assembly
A2780 [7] = test: Ratio of compound IC50 to paclitaxel IC50 for cytotoxic activity against human A2780 cells; type: functional
PC-3 [8] = test: Ratio of compound IC50 to paclitaxel IC50 for cytotoxic activity against human PC3 cells; type: functional
P388 = test: Ratio of docetaxel to compound in cytotoxic activity against mouse P388 cells; type: functional
[9] = Displacement of fluorescent N-AB-PT from tubulin by spectrofluorimetry

With `CC(=O)O[C@H]1C(=O)[C@@]2(C)[C@H]([C@H](OC(=O)c3ccccc3)[C@]3(O)C[C@H](OC(=O)[C@H](O)[C@H]4NC(=O)Oc5ccccc54)C(C)=C1C3(C)C)[C@]1(OC(C)=O)CO[C@@H]1C[C@@H]2O` the IC50 (A2780 [1]) was > 20000 nM, the Activity [2] was “inactive” and the Ratio [3] was 150. For the same compound, the IC50 (PC-3 [4]) was > 5000 nM, the ED50 [5] was > 25000 nM and the Ratio ED50 [6] was 50. The “Ratio IC50” value (A2780 [7]) was 1900 and the “Ratio IC50” value (PC-3 [8]) was 1900.
Compound `CC(=O)O[C@H]1C(=O)[C@@]2(C)[C@H]([C@H](OC(=O)c3ccccc3)[C@@]3(O)C[C@@H](OC(=O)[C@@H](O)[C@@H](NC(=O)c4ccccc4)c4ccccc4C)C(C)=C1C3(C)C)[C@@]1(OC(C)=O)CO[C@@H]1C[C@@H]2O` (stereo in doubt) has a Ratio ED50 [6] of 5.1.
`COC(=O)N[C@@H](c1ccccc1)[C@@H](O)C(=O)O[C@H]1C[C@@]2(O)[C@@H](OC(=O)c3ccccc3)[C@@H]3[C@]4(OC(C)=O)CO[C@@H]4C[C@H](O)[C@@]3(C)C(=O)[C@H](OC(C)=O)C(=C1C)C2(C)C` showed an IC50 (A2780 [1]) of 9 nM, an IC50 (PC-3 [4]) of 2 nM and a Ratio (P388) of 150. For the same compound, the ED50 [5] was 430 nM and the Ka [9] was 1.11e+07 M⁻¹.
Compound `CC(=O)O[C@H]1C(=O)[C@@]2(C)[C@H]([C@H](OC(=O)c3ccccc3)[C@]3(O)C[C@H](OC(=O)[C@H](O)[C@@H](NC(=O)c4ccccc4)c4ccccc4)C(C)=C1C3(C)C)[C@]1(OC(C)=O)CO[C@@H]1C[C@@H]2O` [PACLITAXEL] has an IC50 (PC-3 [4]) of 1.4 nM, an ED50 [5] of 480 nM and a Ka [9] of 4.76e+07 M⁻¹.
